Data reported in US20070161645A1, “Thiazole inhibitors targeting resistant kinase mutations” (TargeGen, Inc., priority 2005, published 2007).
Structures can show the parent of a compound that is named as a salt. Where two headings read alike, the source gives them in different places.

What was measured:
[1] = molecular target: T1, Abl (T315I) (Homo sapiens, UniProt P00519, T315I); test: Abl (T315I) Kinase Assay (KinaseGlo luminescent detection of residual ATP); type: biochemical
T1 construct: purchased Upstate
Description: The assay was performed similarly to the Abl kinase assay. Abl (T3151) (Upstate, 17 ng/well); Abltide substrate (100 μM) and ATP (5 nM) comprised the reaction mixture. Compound was similarly diluted, and the reaction plate was incubated for 60 minutes at 37° C. IC50's were calculated as for the Abl kinase assay using GraphPad Prism4.

[2] = molecular target: T2, Abl kinase (Homo sapiens, UniProt P00519); test: Abl Kinase Assay (KinaseGlo luminescent detection of residual ATP); type: biochemical
T2 construct: purchased Invitrogen
Description: Kinase activity was assessed using luminescent detection (KinaseGlo, Promega) of residual ATP concentration in reaction mixtures containing optimized levels of kinase, substrate, ATP, compound and appropriate buffers. Kinase, substrate and ATP concentrations were determined per the supplier's recommendations. Briefly, this involved running concentration curves to select for optimal signal.
The reaction mixture (50 μl/well) consisted of Abl kinase (Invitrogen, 20 ng/well); Abltide peptide substrate (Upstate, 100 μM) and ATP (500 nM). Each compound was evaluated at a top concentration of 10 μM with 1:3 dilution steps, 10 dilution steps total. Compound was diluted into DMSO and transferred to the reaction plate, resulting in a final DMSO concentration of 2%. This amount of DMSO was determined not to interfere with the enzyme. The reaction was conducted at 37° C. for 60 minutes. The degree of inhibition was assessed using IC50 determinations, which were obtained using GraphPad Prism4.

[3] = Abl (T315I) 17 ng/well, Abltide 100 μM, ATP 5 nM, 60 minutes at 37° C., read-out: Abl (T315I) IC50
[4] = Abl kinase 20 ng/well, Abltide 100 μM, ATP 500 nM, 60 minutes at 37° C., read-out: Abl IC50

Row | IC50 [1] [nM] | IC50 [2] [nM] | IC50 [1, 3] [nM] | IC50 [2, 4] [nM] | Structure (SMILES)
1 | 154 | 15 | – | – | Oc1cccc(/C=C/c2cnc(Nc3ccc(N4CCNCC4)cc3)s2)c1 [Compound IX, 3-((E)-2-(2-(4-(Piperazin-1-yl)phenylamino)thiazol-5-yl)vinyl)phenol]
2 | 381 | 14 | – | – | Oc1cccc(/C=C/c2cnc(Nc3cccc(N4CCNCC4)c3)s2)c1 [Compound X, 3-((E)-2-(2-(3-(Piperazin-1-yl)phenylamino)thiazol-5-yl)vinyl)phenol]
3 | – | – | 208 | 24 | Cc1nc(Nc2ncc(/C=C/c3cccc(O)c3)s2)cc(N2CCC(O)CC2)n1 [Compound VIII, trans-1-(6-{5-[2-(3-Hydroxy-phenyl)-vinyl]-thiazol-2-ylamino}-2-methyl-pyrimidin-4-yl)-piperidin-4-ol]
4 | – | – | 437 | 137 | O=S(=O)(c1ccc(Nc2ncc(/C=C/c3cccc(O)c3)s2)cc1)N1CCNCC1 [Compound XI, 3-(-{2-[4-(Piperazine-1-sulfonyl)-phenylamino]-thiazol-5yl}-vinyl)-phenol]
5 | – | – | 31 | 2.7 | Cc1nc(Nc2ncc(/C=C/c3cccc(O)c3)s2)cc(N2CCCNCC2)n1 [Compound XVIII, 3-{2-[2-(6-[1,4]Diazepan-1-yl-2-methyl-pyrimidin-4-ylamino)-thiazol-5-yl]-vinyl}-phenol]
6 | 827 | 393 | – | – | CN(CCN1CCCC1)S(=O)(=O)c1cccc(Nc2ncc(/C=C/c3ccc(O)cc3)s2)c1 [Compound II, 3-{5-[2-(4-Hydroxy-phenyl)-vinyl]-thiazol-2-ylaminol}-N-methyl-N-(2-pyrrolidin-1-yl-ethyl)-benzenesulfonamide, Hydrochloride]
7 | – | – | 350 | 16 | Cc1nc(Nc2ncc(/C=C/c3ccc4[nH]ncc4c3)s2)cc(N2CCNCC2)n1 [Compound XXIV, {5-[2-(1H-Indazol-5-yl)-vinyl]-thiazol-2-yl}-(2-methyl-6-piperazin-1-yl-pyrimidin-4-yl)-amine]
8 | 605 | 224 | – | – | COc1cccc(/C=C/c2cnc(Nc3cc(N4CCNCC4)nc(C)n3)s2)c1 [Compound XXI, (E)-5-(3-Methoxystyryl)-N-(2-methyl-6-(piperazin-1-yl)pyrimidin-4-yl)thiazol-2-amine hydrochloride]
9 | – | – | 66 | 26 | Cc1nc(Nc2ncc(/C=C/c3ccc(O)cc3)s2)cc(N2CCN(CCO)CC2)n1 [Compound III, 4-[2-(2-{6-[4-(2-Hydroxy-ethyl)-piperazin-1-yl]-2-methyl-pyrimidin-4-yl-amino}-thiazol-5-yl)-vinyl]-phenol]
10 | 2650 | 129 | – | – | O=S(=O)(c1cccc(Nc2ncc(/C=C/c3cccc(O)c3)s2)c1)N1CCNCC1 [Compound VI, 3-(-{2-[3-(Piperazine-1-sulfonyl)-phenylamino]-thiazol-5yl}-vinyl)-phenol]
11 | – | – | 269 | 29 | Cc1nc(Nc2ncc(/C=C\c3cccc(O)c3)s2)cc(N2CCC(O)CC2)n1 [Compound VII, cis-1-(6-{5-[2-(3-Hydroxy-phenyl)-vinyl]-thiazol-2-ylamino}-2-methyl-pyrimidin-4-yl)-piperidin-4-ol]
12 | – | – | 35 | 4.4 | Oc1cccc(/C=C/c2cnc(Nc3cc(N4CCNCC4)ncn3)s2)c1 [Compound XVII, 3-{2-[2-(6-Piperazin-1-yl-pyrimidin-4-ylamino)-thiazol-5-yl]-vinyl}-phenol]
13 | – | – | – | 890 | O=S(=O)(NCCN1CCCC1)c1ccc(Nc2ncc(C=Cc3cc(O)ccc3Cl)s2)cc1 [Compound IV, 4-{5-[2-(2-Chloro-5-hydroxy-phenyl)-vinyl]-thiazol-2-ylamino}-N-(2-pyrrolidin-1-yl-ethyl)-benzenesulfonamide]
14 | – | – | 51 | 24 | Oc1ccc(/C=C/c2cnc(Nc3cccc(N4CCNCC4)c3)s2)cc1 [Compound XIV, 4-{2-[2-(3-Piperazin-1-yl-phenylamino)-thiazol-5-yl]-vinyl}-phenol]
15 | – | – | 328 | 20 | Cc1nc(Nc2ncc(/C=C/c3cccc4[nH]ncc34)s2)cc(N2CCNCC2)n1 [Compound XVI, {5-[2-(1H-Indazol-4-yl)-vinyl]-thiazol-2-yl}-(2-methyl-6-piperazin-1-yl-pyrimidin-4-yl)-amine]
16 | – | – | 7140 | 307 | O=C(Nc1ccc(/C=C/c2cnc(Nc3cccc(N4CCNCC4)c3)s2)cc1)c1cccc(C(F)(F)F)c1 [Compound XXIII, N-(4-{2-[2-(3-Piperazin-1-yl-phenylamino)-thiazol-5-yl]-vinyl}-phenyl)-3-trifluoromethyl-benzamide]
17 | 111 | 16 | – | – | Cc1nc(Nc2ncc(/C=C/c3ccc4nc(N)sc4c3)s2)cc(N2CCNCC2)n1 [Compound XIX, 6-[(E)-2-{2-[(2-Methyl-6-piperazin-1-ylpyrimidin-4-yl)amino]-1,3-thiazol-5-yl}vinyl]-1,3-benzothiazol-2-amine]
18 | – | – | 50 | 70 | Cc1nc(Nc2ncc(/C=C/c3ccc(Cl)c4[nH]ccc34)s2)cc(N2CCNCC2)n1 [4-{5-[2-(3-Hydroxy-phenyl)-vinyl]-pyrimidine-2-ylamino}-N-piperdin-4-yl-benzenesulfonamide]
19 | 1090 | 174 | – | – | OCCN1CCN(c2cccc(Nc3ncc(/C=C/c4ccc5[nH]ccc5c4)s3)c2)CC1 [Compound V, 2-(4-(3-(5-((E)-2-(1H-indol-5-yl)vinyl)thiazol-2-ylamino)phenyl)piperazin-1-yl)ethanol]
20 | – | – | 343 | 54 | Cc1nc(Nc2ncc(/C=C/c3ccc4[nH]ccc4c3)s2)cc(N2CCNCC2)n1 [Compound XV, {5-[2-(1H-Indol-5-yl)-vinyl]-thiazol-2-yl}-(2-methyl-6-piperazin-1-yl-pyrimidin-4-yl)-amine]
21 | 18 | 1.5 | – | – | Cc1nc(Nc2ncc(/C=C/c3cccc(O)c3)s2)cc(N2CCNCC2)n1 [Compound XX, (E)-3-(2-(2-(2-Methyl-6-(piperazin-1-yl)pyrimidin-4-ylamino)thiazol-5-yl)vinyl)phenol hydrochloride]
22 | 272 | 161 | – | – | Oc1ccc(/C=C/c2cnc(Nc3cccc(OCCN4CCCC4)c3)s2)cc1 [Compound XXII, 4-(2-{2-[3-(2-Pyrrolidin-1-yl-ethoxy)-phenylamino]-thiazol-5-yl}-vinyl)-phenol]
23 | 262 | 215 | – | – | O=S(=O)(c1ccc(Nc2ncc(/C=C/c3ccc(O)cc3)s2)cc1)C1CCNCC1
